Columns and labels:
Assay in all cases: relative viability (nuclei count vs DMSO), 5 days (fraction); higher = more cells survive
Trametinib + Dasatinib = compound: CC(=O)Nc1cccc(-n2c(=O)n(C3CC3)c(=O)c3c(Nc4ccc(I)cc4F)n(C)c(=O)c(C)c32)c1 [Trametinib] + Cc1nc(Nc2ncc(C(=O)Nc3c(C)cccc3Cl)s2)cc(N2CCN(CCO)CC2)n1 [Dasatinib] (partner 0.075 µM)
Method in brief: (§1)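 Lung cancer cell lines were pin-tool dosed in 1536-well plates on the day after seeding, with either a lone drug or a fixed anchor-drug dose plus five library-drug doses (not always all listed) in √10 steps. Nuclei were counted on 4× images after 5 days. Relative viability is the ratio of treated-well to vehicle-well nuclei counts, with each value a median of duplicate plates.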

[1] = compound: CN1C=C(C2=CC=CC=C21)/C=C\3/C4=C(C=CC=N4)NC3=O + CC(=O)c1c(C)c2cnc(Nc3ccc(N4CCNCC4)cn3)nc2n(C2CCCC2)c1=O [Palbociclib] (partner 0.5 µM)
Method in brief: as §1

Trametinib + Crizotinib = compound: CC(=O)Nc1cccc(-n2c(=O)n(C3CC3)c(=O)c3c(Nc4ccc(I)cc4F)n(C)c(=O)c(C)c32)c1 [Trametinib] + C[C@@H](Oc1cc(-c2cnn(C3CCNCC3)c2)cnc1N)c1c(Cl)ccc(F)c1Cl [Crizotinib] (partner 1 µM)
Method in brief: as §1

Trametinib + Alpelisib = compound: CC(=O)Nc1cccc(-n2c(=O)n(C3CC3)c(=O)c3c(Nc4ccc(I)cc4F)n(C)c(=O)c(C)c32)c1 [Trametinib] + Cc1nc(NC(=O)N2CCC[C@H]2C(N)=O)sc1-c1ccnc(C(C)(C)C(F)(F)F)c1 [Alpelisib] (partner 2 µM)
Method in brief: as §1

Cell Line	relative viability (Trametinib + Dasatinib; first compound 0.0025 µM)	relative viability (Trametinib + Dasatinib; first compound 0.007906 µM)	relative viability (Trametinib + Dasatinib; first compound 0.025 µM)	relative viability (Trametinib + Dasatinib; first compound 0.07906 µM)	relative viability (Trametinib + Dasatinib; first compound 0.25 µM)	relative viability ([1]; first compound 0.02 µM)	relative viability ([1]; first compound 0.06325 µM)	relative viability ([1]; first compound 0.2 µM)	relative viability ([1]; first compound 0.6325 µM)	relative viability ([1]; first compound 2 µM)	relative viability (Trametinib + Crizotinib; first compound 0.0025 µM)	relative viability (Trametinib + Crizotinib; first compound 0.007906 µM)	relative viability (Trametinib + Crizotinib; first compound 0.025 µM)	relative viability (Trametinib + Crizotinib; first compound 0.07906 µM)	relative viability (Trametinib + Crizotinib; first compound 0.25 µM)	relative viability (Trametinib + Alpelisib; first compound 0.0025 µM)	relative viability (Trametinib + Alpelisib; first compound 0.007906 µM)	relative viability (Trametinib + Alpelisib; first compound 0.025 µM)	relative viability (Trametinib + Alpelisib; first compound 0.07906 µM)	relative viability (Trametinib + Alpelisib; first compound 0.25 µM)
LU99A	0.529	0.535	0.376	0.363	0.317	0.374	0.417	0.393	0.381	0.432	0.554	0.489	0.473	0.368	0.214	0.571	0.456	0.444	0.262	0.172
LXF-289	0.192	0.305	0.299	0.28	0.0945	0.589	0.593	0.626	0.656	0.775	0.738	0.711	0.608	0.531	0.353	0.961	0.894	0.758	0.672	0.495
NCI-H23	0.544	0.74	0.293	0.231	0.172	0.506	0.408	0.417	0.499	0.486	0.389	0.428	0.34	0.387	0.263	0.635	0.509	0.264	0.349	0.208
NCI-H322M	0.239	0.239	0.247	0.266	0.284	0.451	0.458	0.487	0.498	0.5	0.943	0.986	0.686	0.697	1.04	0.78	0.59	0.555	0.455	0.316
NCI-H358	0.137	0.117	0.103	0.11	0.143	0.147	0.152	0.123	0.13	0.138	0.526	0.349	0.276	0.243	0.194	0.563	0.373	0.277	0.269	0.248
NCI-H441	0.37	0.49	0.249	0.287	0.206	0.199	0.163	0.189	0.194	0.193	0.757	0.691	0.608	0.448	0.294	0.836	0.659	0.638	0.533	0.33
NCI-H460	0.369	0.176	0.138	0.085	0.0431	0.209	0.153	0.0627	0.103	0.157	0.857	0.552	0.476	0.289	0.0283	0.417	0.146	0.115	0.0733	0.0121
NCI-H520	0.281	0.225	0.288	0.282	0.176	0.261	0.227	0.219	0.218	0.218	0.752	0.681	0.815	0.733	0.557	0.768	0.887	0.81	0.818	0.693
NCI-H647	0.169	0.22	0.184	0.107	0.0699	0.367	0.354	0.292	0.37	0.348	0.961	1.04	0.746	0.671	0.572	1.14	0.956	0.768	0.638	0.199
NCI-H650	0.573	0.615	0.541	0.445	0.356	0.385	0.341	–	0.356	0.391	0.787	0.736	0.672	0.668	0.339	1.31	1.42	1.38	1.35	0.71
NCI-H661	0.816	0.796	0.565	0.481	0.513	0.425	0.406	0.343	0.389	0.37	1.12	1.19	1.03	1.04	1.08	0.607	0.654	0.411	0.257	0.264
NCI-H727	0.31	0.212	0.347	0.196	0.244	0.63	0.575	0.653	0.652	0.623	0.381	0.278	0.279	0.195	0.206	0.312	0.211	0.227	0.172	0.183
NCI-H838	0.251	0.322	0.214	0.27	0.249	0.208	0.174	0.214	0.199	0.18	0.786	0.689	–	0.572	0.411	0.97	0.877	–	0.709	0.551
NCI-H1355	0.607	0.528	0.337	0.373	0.326	0.303	0.369	0.387	0.476	0.517	1.01	0.869	0.645	0.655	0.47	0.68	0.627	0.356	0.388	0.352
NCI-H1437	0.374	0.207	0.162	0.118	0.217	0.344	0.34	0.292	0.32	0.318	0.952	0.883	0.572	0.373	0.472	0.908	0.342	0.22	0.219	0.208
NCI-H1651	0.487	0.384	0.404	0.284	0.217	0.563	0.492	0.554	0.5	0.542	0.898	0.804	0.828	0.743	0.729	0.901	0.864	0.775	0.597	0.66
